{"source": "patent US7294643B2", "about": "“UK-1 analogues: methods of preparation and use” (Board of Regents, The University of Texas System, priority 2002, dated 2007)", "key": {"[1]": {"tested_on": "MCF-7 cells", "experiment": "alamarBlue cytotoxicity assay, MCF-7", "format": "cell-based", "settings": "Homo sapiens, MCF7; MCF-7, alamarBlue, 72 h", "description": "(§1) Cytotoxicity Assays. Cell culture cytotoxicity assays were performed using the. alamarBlue method, as described by Ahmed et al., J. Immun. Methods 1994, 170, 211-224, which is incorporated herein by reference. Briefly, aliquots of 100 μL of cell suspension (1.0-2.5×10^3 cells) was placed in 96-well microtiter plates in an atmosphere of 5% CO2 at 37° C. After 24 hours, 100 μL of culture medium and 2 μL of compound in vehicle (culture media with 40% pyridine) or vehicle alone were added, and the plates incubated an additional 72 hours. The final pyridine concentration in all cases was 0.4%; at this pyridine concentration there was no affect on the growth of cells compared to cells in culture media without added pyridine. […] After the culture media had been removed from each well, 200 μL of fresh media and 20 μL of 90% alamarBlue reagent were added, followed by an additional 6 h incubation. The fluorescent intensity was measured using a Spectrafluor Plus plate reader with excitation at 530 nm and emission at 590 nm. Results are reported as IC50 values, the average concentration required to produce a decrease of fluorescent intensity of 50% relative to vehicle-treated controls in two separate determinations."}, "[2]": {"tested_on": "HT-29 cells", "experiment": "alamarBlue cytotoxicity assay, HT-29", "format": "cell-based", "settings": "Homo sapiens; HT-29, alamarBlue, 72 h", "description": "as §1"}, "[3]": {"tested_on": "HL60 cells", "experiment": "alamarBlue cytotoxicity assay, HL60", "format": "cell-based, human", "settings": "HL60, alamarBlue, 72 h", "description": "as §1"}, "[4]": {"tested_on": "PC-3 cells", "experiment": "alamarBlue cytotoxicity assay, PC-3", "format": "cell-based, human", "settings": "PC-3, alamarBlue", "description": "as §1"}, "[5]": {"tested_on": "MDA-231", "experiment": "alamarBlue cytotoxicity assay, MDA-231", "format": "cell-based", "settings": "Homo sapiens, MDA-MB-231; MDA-231, alamarBlue", "description": "as §1"}, "[6]": {"tested_on": "A549", "experiment": "alamarBlue cytotoxicity assay, A549", "format": "cell-based", "settings": "Homo sapiens", "description": "as §1"}, "[7]": {"tested_on": "SK-N-AS", "experiment": "alamarBlue cytotoxicity assay, SK-N-AS", "format": "cell-based", "settings": "Homo sapiens", "description": "as §1"}, "[8]": {"tested_on": "SK-N-D7", "experiment": "alamarBlue cytotoxicity assay, SK-N-D7", "format": "cell-based", "description": "as §1"}, "[9]": {"tested_on": "CHP-212", "experiment": "alamarBlue cytotoxicity assay, CHP-212", "format": "cell-based", "settings": "Homo sapiens; CHP-212, alamarBlue", "description": "as §1"}, "[10]": {"tested_on": "IMR-32 neuroblastoma cell line", "experiment": "alamarBlue cytotoxicity assay, IMR-32", "format": "cell-based", "settings": "Homo sapiens", "description": "as §1"}, "[11]": {"tested_on": "NGP neuroblastoma cell line", "experiment": "alamarBlue cytotoxicity assay, NGP", "format": "cell-based", "description": "as §1"}, "[12]": {"experiment": "alamarBlue cytotoxicity, range over three cell lines", "format": "cell-based", "settings": "human; range of concentrations required to inhibit growth of MCF-7, HT-29, and PC-3 cells by 50%", "description": "as §1"}, "[13]": {"experiment": "Metal ion binding by continuous variation, Mg2+", "settings": "Mg^2+, methanol, 1:1 complex", "description": "Previous work indicated the metal ion binding mechanism of UK-1, so the method of continuous variation was used to determine the ability of selected UK-1analogues to bind a variety of metal ions. Methanolic solutions of UK-1 or UK-1 analogues and metal ion salts [Ca(NO3)2, Mg(NO3)2, Zn(NO3)2, or Fe(NO3)3] at various molar ratios, and 20 μM combined total concentration, were prepared and the absorbance at 418 nm was determined. […] Compound 2.1 does bind with Ca^2+ and Zn^2+ better than UK-1.\nContinuous variation plots. A 100 μM solution of UK-1 or analogue and 100 AM solutions of Ca(NO3)2, Mg(NO3)2, Zn(NO3)2, or Fe(NO3)3 were prepared in methanol. From these stock solutions, 15 samples (1 mL) of varying mole fraction of the metal ion were prepared at a constant, combined concentration of 20 μM for the ligand and the metal ion. The change in absorbance was monitored from 500 to 200 nm for each sample using as a reference a 1 mL solution containing the same concentration of ligand as the sample being measured but without the metal ion. The maximum absorbance change was typically around 418 nm but varied somewhat for each metal ion. The absorbance at 418 nm was plotted as a function of the mole fraction of the metal ion and the maximum absorbance change was determined. The absorbance of a sample containing the metal ion concentration corresponding to this maximum change and a 15 fold excess of metal ion at this ligand concentration, subtracted from a reference containing the same concentration of ligand but no metal ion was used to normalize the curve and obtain the conditional formation constant as described in the paper to Likussar, W.; Boltz, D. F. Anal. Chem. 1971, 43, 1265-1272, which is incorporated herein by reference."}, "[14]": {"tested_on": "double-stranded DNA oligonucleotide", "experiment": "DNA binding by ESI-MS", "design": "key: MetalDepend.: all ligand-DNA complex ions also contained a metal ion.; None: no ligand-DNA complex ions observed.; MetalIndepend.: ligand-DNA and ligand-DNA-metal ion complex ions observed", "settings": "ligand-DNA complex ions, presence or absence of added NiCl2"}, "[15]": {"tested_on": "Supercoiled ΦX174 DNA", "experiment": "Cleavage of supercoiled DNA, agarose gel electrophoresis", "format": "biochemical", "settings": "37° C.", "description": "Supercoiled Φ[…] DNA (50 μM) was incubated for 24 hrs in pH 8 Tris buffer (10 mM) at 37° C. with UK-1 (15-25 μM), H2O2 (5 μM-5 mM), or NiCl2 (15-25 μM), or a combination of these agents. Agarose gel electrophoresis was carried out to resolve the DNA products. […] There was an increase in the proportion of nicked, relaxed DNA product in the presence of an oxidant (e.g., H2O2), but no linear DNA that would indicate double-stranded DNA cleavage. […] FIG. 5 depicts cleavage of supercoiled DNA by UK-1 in the presence of oxidizing agents and metal ions. Supercoiled Φ[…] DNA (50 μM bp) was incubated with UK-1 (23 μM), NiCl2 (23 μM), H2O2 (5 mM), or combinations of these agents at 37° C. for 24 h and the DNA products subjected to agarose gel electrophoresis with ethidium bromide staining. Lanes: C, untreated supercoiled DNA; 1, DNA+UK-1; 2, DNA+NiCl2; 3, DNA+H2O2; 4, DNA+UK-1+NiCl2; 5, DNA+UK-1+H2O2; 6, DNA+UK-1+NiCl2+H2O2; 7, DNA+NiCl2+H2O2."}}, "note": "pIC50: −log10 of the molar value.", "data": [{"molecule": "COC(=O)c1cccc2oc(-c3cccc4oc(-c5ccccc5O)nc34)nc12", "note": "[UK-1]", "values": [{"measurement": "pIC50", "setting": "[1]", "value": 5.80}, {"measurement": "pIC50", "setting": "[2]", "value": 4.19}, {"measurement": "pIC50", "setting": "[3]", "value": 6.40}, {"measurement": "pIC50", "setting": "[3]; Homo sapiens, HL-60, 72 h", "value": 6.49}, {"measurement": "pIC50", "setting": "[4]; Homo sapiens, PC-3, 72 h", "value": 6.40}, {"measurement": "pIC50", "setting": "[4]; 72 h", "value": 6.49}, {"measurement": "pIC50", "setting": "[5]", "value": 6.30}, {"measurement": "pIC50", "setting": "[6]", "value": 5.72}, {"measurement": "pIC50", "setting": "[7]", "value": 4.62}, {"measurement": "pIC50", "setting": "[8]", "value": 6.77}, {"measurement": "pIC50", "setting": "[9]", "value": 4.92}, {"measurement": "pIC50", "setting": "[10]; IMR-32, IMR-32, alamarBlue", "value": 7.22}, {"measurement": "pIC50", "setting": "[10]; IMR-32, IMR-32, bound stated in text", "value": "> 7.00"}, {"measurement": "pIC50", "setting": "[11]; alamarBlue", "value": 7.70}, {"measurement": "pIC50", "setting": "[11]; bound stated", "value": "> 7.00"}, {"measurement": "IC50 at 72 h", "setting": "[12]", "value": "320 to 65000", "unit": "nM"}, {"measurement": "Association constant for metal ion binding", "setting": "[13]", "value": "2e+06", "unit": "M⁻¹"}, {"measurement": "DNA-Binding ESI-MS", "setting": "[14]", "value": "MetalDepend.^d"}, {"measurement": "DNA cleavage", "setting": "[15]; UK-1 and an oxidant (H2O2), 24 hrs", "value": "significantly more DNA cleavage"}, {"measurement": "DNA cleavage", "setting": "[15]; UK-1 only, 24 hrs, pH 8 Tris buffer", "value": "no evidence of DNA cleavage"}, {"measurement": "DNA cleavage", "setting": "[15]; combination of UK-1, H2O2, and NiCl2, 24 hrs", "value": "particularly active in inducing DNA cleavage"}]}]}
